Assay results reported in PMC5218480 (PLoS ONE, 2017).

System: MV-4-11 cells
Assay: Gene expression microarray analysis (Affymetrix PrimeView) and GSEA
Assay type: cell-based, human
Design: RFU PODN (11730768_x_at) / Fold change /veh PODN (11730768_x_at) / RFU LINC00158 (11744669_a_at) / Fold change /veh LINC00158 (11744669_a_at) / RFU DUSP10 (11751237_a_at) / Fold change /veh DUSP10 (11751237_a_at) / RFU ID3 (11757404_x_at) / Fold change /veh ID3 (11757404_x_at) / RFU PLEKHG5 (11737974_s_at) / Fold change /veh PLEKHG5 (11737974_s_at) / RFU LRRC4B (11730491_at) / Fold change /veh LRRC4B (11730491_at) / RFU GIMAP4 (11747438_a_at) / Fold change /veh GIMAP4 (11747438_a_at) / RFU KRT8 (11758183_x_at) / Fold change /veh KRT8 (11758183_x_at) / RFU CNN1 (11734310_a_at) / Fold change /veh CNN1 (11734310_a_at) / RFU VPS37D (11726825_at) / Fold change /veh VPS37D (11726825_at) / RFU C10orf10 (11716522_x_at) / Fold change /veh C10orf10 (11716522_x_at) / RFU KIR2DL2 /// KIR2DL4 /// KIR2DL5A /// KIR2DL5B /// KIR2DS1 /// KIR2DS2 /// KIR2DS3 /// KIR2DS4 /// KIR3DL3 /// KIR3DL3 /// KIR3DS1 (11738374_at) / Fold change /veh KIR2DL2 /// KIR2DL4 /// KIR2DL5A /// KIR2DL5B /// KIR2DS1 /// KIR2DS2 /// KIR2DS3 /// KIR2DS4 /// KIR3DL3 /// KIR3DL3 /// KIR3DS1 (11738374_at) / RFU C1QL1 (11718748_at) / Fold change /veh C1QL1 (11718748_at) / RFU TMPRSS4 (11747572_a_at) / Fold change /veh TMPRSS4 (11747572_a_at) / RFU HAMP (11756126_x_at) / Fold change /veh HAMP (11756126_x_at) / RFU RNFT2 (11725882_a_at) / Fold change /veh RNFT2 (11725882_a_at) / RFU NR4A2 (11747474_a_at) / Fold change /veh NR4A2 (11747474_a_at) / RFU ABCC12 (11746883_a_at) / Fold change /veh ABCC12 (11746883_a_at) / RFU TMEM136 (11760407_x_at) / Fold change /veh TMEM136 (11760407_x_at) / RFU CLDN22 /// WWC2 (11732394_at) / Fold change /veh CLDN22 /// WWC2 (11732394_at) / RFU HLA-DPB1 (11760878_x_at) / Fold change /veh HLA-DPB1 (11760878_x_at) / RFU SPINT1 (11716480_a_at) / Fold change /veh SPINT1 (11716480_a_at) / RFU GAP43 (11754022_s_at) / Fold change /veh GAP43 (11754022_s_at) / RFU A4GNT (11735810_at) / Fold change /veh A4GNT (11735810_at) / RFU PRB3 (11715151_x_at) / Fold change /veh PRB3 (11715151_x_at) / RFU TUBB4B (11761932_at) / Fold change /veh TUBB4B (11761932_at) / RFU CAPN14 (11732068_a_at) / Fold change /veh CAPN14 (11732068_a_at) / RFU TMCC2 (11721928_a_at) / Fold change /veh TMCC2 (11721928_a_at) / RFU IRGQ (11745062_a_at) / Fold change /veh IRGQ (11745062_a_at) / RFU FAM174B (11720279_a_at) / Fold change /veh FAM174B (11720279_a_at) / RFU TMPRSS4 (11748680_a_at) / Fold change /veh TMPRSS4 (11748680_a_at) / RFU FAM212B (11763350_a_at) / Fold change /veh FAM212B (11763350_a_at) / RFU PLEKHG5 (11743358_a_at) / Fold change /veh PLEKHG5 (11743358_a_at) / RFU ZSCAN30 (11745921_a_at) / Fold change /veh ZSCAN30 (11745921_a_at) / RFU CMKLR1 (11741424_a_at) / Fold change /veh CMKLR1 (11741424_a_at) / RFU LOC101060620 /// MAPK8IP1 (11723275_at) / Fold change /veh LOC101060620 /// MAPK8IP1 (11723275_at) / RFU SPTSSB (11747773_x_at) / Fold change /veh SPTSSB (11747773_x_at) / RFU PRSS12 (11739890_at) / Fold change /veh PRSS12 (11739890_at) / RFU BIN1 (11741810_x_at) / Fold change /veh BIN1 (11741810_x_at) / RFU WNT11 (11732464_a_at) / Fold change /veh WNT11 (11732464_a_at) / RFU C10orf10 (11716521_a_at) / Fold change /veh C10orf10 (11716521_a_at) / RFU C5orf56 (11738089_at) / Fold change /veh C5orf56 (11738089_at) / RFU CYB561 (11721691_x_at) / Fold change /veh CYB561 (11721691_x_at) / RFU ANKRD19P (11752326_a_at) / Fold change /veh ANKRD19P (11752326_a_at) / RFU OR2T12 /// OR2T33 /// OR2T8 (11738714_s_at) / Fold change /veh OR2T12 /// OR2T33 /// OR2T8 (11738714_s_at) / RFU VCAN (11748164_a_at) / Fold change /veh VCAN (11748164_a_at) / RFU JSRP1 (11732532_at) / Fold change /veh JSRP1 (11732532_at) / RFU KRTAP10-11 (11738290_x_at) / Fold change /veh KRTAP10-11 (11738290_x_at) / RFU MYO3A (11730013_a_at) / Fold change /veh MYO3A (11730013_a_at) / RFU EBF3 (11725865_a_at) / Fold change /veh EBF3 (11725865_a_at) / RFU CAMK2N1 (11719241_x_at) / Fold change /veh CAMK2N1 (11719241_x_at) / RFU C5orf56 (11738088_a_at) / Fold change /veh C5orf56 (11738088_a_at) / RFU OLFML3 (11715873_a_at) / Fold change /veh OLFML3 (11715873_a_at) / RFU LOC100653217 /// NTM (11731650_a_at) / Fold change /veh LOC100653217 /// NTM (11731650_a_at) / RFU MAPK11 (11762145_a_at) / Fold change /veh MAPK11 (11762145_a_at) / RFU FIZ1 (11724087_x_at) / Fold change /veh FIZ1 (11724087_x_at) / RFU OASL (11726364_x_at) / Fold change /veh OASL (11726364_x_at) / RFU SOX15 (11748057_x_at) / Fold change /veh SOX15 (11748057_x_at) / RFU CD79A (11719716_a_at) / Fold change /veh CD79A (11719716_a_at) / RFU HIST1H1D (11736915_at) / Fold change /veh HIST1H1D (11736915_at) / RFU CASKIN2 (11723855_a_at) / Fold change /veh CASKIN2 (11723855_a_at) / RFU LOC730098 (11760151_x_at) / Fold change /veh LOC730098 (11760151_x_at) / RFU OR4N2 (11742367_at) / Fold change /veh OR4N2 (11742367_at) / RFU PRRT2 (11749266_a_at) / Fold change /veh PRRT2 (11749266_a_at) / RFU SNX32 (11753110_a_at) / Fold change /veh SNX32 (11753110_a_at) / RFU CDHR5 (11726645_a_at) / Fold change /veh CDHR5 (11726645_a_at) / RFU RCAN1 (11760418_a_at) / Fold change /veh RCAN1 (11760418_a_at) / RFU FAM167A (11723789_a_at) / Fold change /veh FAM167A (11723789_a_at) / RFU FAM26E (11764081_at) / Fold change /veh FAM26E (11764081_at) / RFU ISYNA1 (11749810_s_at) / Fold change /veh ISYNA1 (11749810_s_at) / RFU ACY1 (11761880_at) / Fold change /veh ACY1 (11761880_at) / RFU 11764098_at / Fold change /veh 11764098_at / RFU SAMD14 (11745864_x_at) / Fold change /veh SAMD14 (11745864_x_at) / RFU NPB (11741838_a_at) / Fold change /veh NPB (11741838_a_at) / RFU TMPRSS6 (11731388_a_at) / Fold change /veh TMPRSS6 (11731388_a_at) / RFU KRTAP10-2 (11738614_at) / Fold change /veh KRTAP10-2 (11738614_at) / RFU ARHGAP8 /// PRR5-ARHGAP8 (11727945_x_at) / Fold change /veh ARHGAP8 /// PRR5-ARHGAP8 (11727945_x_at) / RFU KRTAP5-7 /// NADSYN1 (11734609_at) / Fold change /veh KRTAP5-7 /// NADSYN1 (11734609_at) / RFU RASL12 (11751679_a_at) / Fold change /veh RASL12 (11751679_a_at) / RFU CDKN2B (11736163_a_at) / Fold change /veh CDKN2B (11736163_a_at) / RFU PRF1 (11729649_at) / Fold change /veh PRF1 (11729649_at) / RFU, ZNF638 /// ZNF638-IT1 / Fold change vs veh, ZNF638 /// ZNF638-IT1 / RFU, PANK3 / Fold change vs veh, PANK3 / RFU, SH3YL1 / Fold change vs veh, SH3YL1 / RFU, ZEB2 / Fold change vs veh, ZEB2 / RFU, NRIP1 / Fold change vs veh, NRIP1 / RFU, PTTG1IP / Fold change vs veh, PTTG1IP / RFU, CAPN2 / Fold change vs veh, CAPN2 / RFU, MED14 / Fold change vs veh, MED14 / RFU, SNORA58 / Fold change vs veh, SNORA58 / RFU, C1orf63 / Fold change vs veh, C1orf63 / RFU, LRRFIP1 / Fold change vs veh, LRRFIP1 / RFU, NDUFAF7 / Fold change vs veh, NDUFAF7 / RFU, SLC12A2 / Fold change vs veh, SLC12A2 / RFU, IBTK / Fold change vs veh, IBTK / RFU, ESF1 / Fold change vs veh, ESF1 / Fold change vs veh, TMEM50B / RFU, TAOK1 / Fold change vs veh, TAOK1 / RFU, ACBD3 / Fold change vs veh, ACBD3 / RFU, TMA16 / Fold change vs veh, TMA16 / RFU, RWDD3 / Fold change vs veh, RWDD3 / RFU, BCAT1 / Fold change vs veh, BCAT1 / RFU, EDEM3 / Fold change vs veh, EDEM3 / RFU, TMEM33 / Fold change vs veh, TMEM33 / RFU, WDR75 / Fold change vs veh, WDR75 / RFU, AHCTF1 / Fold change vs veh, AHCTF1 / RFU, TFRC / Fold change vs veh, TFRC / RFU, ZDHHC17 / Fold change vs veh, ZDHHC17 / RFU, NOM1 / Fold change vs veh, NOM1 / RFU, ARL8B / Fold change vs veh, ARL8B / RFU, ZBTB11 / Fold change vs veh, ZBTB11 / RFU, TAMM41 / Fold change vs veh, TAMM41 / RFU, KIAA1704 /// LOC100996395 / Fold change vs veh, KIAA1704 /// LOC100996395 / RFU, ING1 / Fold change vs veh, ING1 / RFU, TRMT61B / Fold change vs veh, TRMT61B / RFU, FUBP3 / Fold change vs veh, FUBP3 / RFU, TP53 / Fold change vs veh, TP53 / RFU, TNKS2 / Fold change vs veh, TNKS2 / RFU, ZFP14 / Fold change vs veh, ZFP14 / RFU, ACTR2 / Fold change vs veh, ACTR2 / RFU, PPP3R1 / Fold change vs veh, PPP3R1 / RFU, PIK3R1 / Fold change vs veh, PIK3R1 / RFU, HNRNPA1 / Fold change vs veh, HNRNPA1 / RFU, RNF170 / Fold change vs veh, RNF170 / RFU, ZNF28 / Fold change vs veh, ZNF28 / RFU, RNGTT / Fold change vs veh, RNGTT / RFU, OGT / Fold change vs veh, OGT / RFU, BRD1 / Fold change vs veh, BRD1 / RFU, MARS / Fold change vs veh, MARS / RFU, ZNF655 / Fold change vs veh, ZNF655 / RFU, FAHD1 / Fold change vs veh, FAHD1 / RFU, BDP1 / Fold change vs veh, BDP1 / RFU, LRRCC1 / Fold change vs veh, LRRCC1 / RFU, ARID1A / Fold change vs veh, ARID1A / RFU, ZNF146 / Fold change vs veh, ZNF146 / RFU, ZNF330 / Fold change vs veh, ZNF330 / RFU, GPN3 / Fold change vs veh, GPN3 / RFU, C9orf123 / Fold change vs veh, C9orf123 / RFU, N4BP2L2 / Fold change vs veh, N4BP2L2 / RFU, ARFIP1 / Fold change vs veh, ARFIP1 / RFU, FAM179B / Fold change vs veh, FAM179B / RFU, BCL10 / Fold change vs veh, BCL10 / RFU, UHRF1BP1L / Fold change vs veh, UHRF1BP1L / RFU, BET1 / Fold change vs veh, BET1 / RFU, CNOT2 / Fold change vs veh, CNOT2 / RFU, ZNF268 / Fold change vs veh, ZNF268 / Fold change vs veh, ZNF507 / RFU, DGCR2 / Fold change vs veh, DGCR2 / RFU, WDSUB1 / Fold change vs veh, WDSUB1 / Fold change vs veh, HSP90B1 /// MIR3652 / RFU, ADSS / Fold change vs veh, ADSS / RFU, GK / Fold change vs veh, GK / RFU, ZNF148 / Fold change vs veh, ZNF148 / RFU, TAF9 / Fold change vs veh, TAF9 / RFU, SLC1A5 / Fold change vs veh, SLC1A5 / RFU, SLMO2 / Fold change vs veh, SLMO2 / RFU, ABCC4 / Fold change vs veh, ABCC4 / RFU, LOC101060439 /// RAP1B / Fold change vs veh, LOC101060439 /// RAP1B / RFU, RFX7 / Fold change vs veh, RFX7 / RFU, GTPBP10 / Fold change vs veh, GTPBP10 / RFU, CNEP1R1 / Fold change vs veh, CNEP1R1 / RFU, BIVM-ERCC5 /// ERCC5 / Fold change vs veh, BIVM-ERCC5 /// ERCC5 / RFU, ILF3 / Fold change vs veh, ILF3 / RFU 11762660_at / Fold change /veh 11762660_at / RFU VCAN (11757783_s_at) / Fold change /veh VCAN (11757783_s_at) / RFU DDX43 (11728927_at) / Fold change /veh DDX43 (11728927_at) / RFU KRT8 (11758188_x_at) / Fold change /veh KRT8 (11758188_x_at) / RFU NKD1 (11759106_at) / Fold change /veh NKD1 (11759106_at) / RFU SRD5A1 (11742802_a_at) / Fold change /veh SRD5A1 (11742802_a_at) / RFU TPSAB1 /// TPSB2 (11721975_s_at) / Fold change /veh TPSAB1 /// TPSB2 (11721975_s_at) / RFU GSTM3 (11746129_a_at) / Fold change /veh GSTM3 (11746129_a_at) / RFU IL23R (11737362_x_at) / Fold change /veh IL23R (11737362_x_at) / RFU TMEM51 (11727254_a_at) / Fold change /veh TMEM51 (11727254_a_at) / RFU PIWIL2 (11732686_x_at) / Fold change /veh PIWIL2 (11732686_x_at) / RFU ORM1 (11744905_x_at) / Fold change /veh ORM1 (11744905_x_at) / RFU CCDC152 (11743942_at) / Fold change /veh CCDC152 (11743942_at) / RFU ECM1 (11717891_a_at) / Fold change /veh ECM1 (11717891_a_at) / RFU IL23R (11748794_a_at) / Fold change /veh IL23R (11748794_a_at) / RFU TNFAIP8L3 (11732012_x_at) / Fold change /veh TNFAIP8L3 (11732012_x_at) / RFU MBOAT4 (11741988_at) / Fold change /veh MBOAT4 (11741988_at) / RFU 11764193_at / Fold change /veh 11764193_at / RFU TMEM53 (11763286_at) / Fold change /veh TMEM53 (11763286_at) / RFU MAGEB2 (11727129_at) / Fold change /veh MAGEB2 (11727129_at) / RFU TMEM200A (11744735_a_at) / Fold change /veh TMEM200A (11744735_a_at) / RFU CCDC152 (11751479_a_at) / Fold change /veh CCDC152 (11751479_a_at) / RFU FAM211A (11726209_a_at) / Fold change /veh FAM211A (11726209_a_at) / RFU RGS16 (11746705_a_at) / Fold change /veh RGS16 (11746705_a_at) / RFU VCAN (11755009_s_at) / Fold change /veh VCAN (11755009_s_at) / RFU RHOB (11743442_s_at) / Fold change /veh RHOB (11743442_s_at) / RFU RGS16 (11720943_a_at) / Fold change /veh RGS16 (11720943_a_at) / RFU RGS16 (11720944_at) / Fold change /veh RGS16 (11720944_at) / RFU, VPS4B / Fold change vs veh, VPS4B / RFU, CREB1 / Fold change vs veh, CREB1 / RFU, DNAJC13 / Fold change vs veh, DNAJC13 / RFU, GNAQ / Fold change vs veh, GNAQ / RFU, CDK5R1 / Fold change vs veh, CDK5R1 / RFU, ZRANB3 / Fold change vs veh, ZRANB3 / RFU, CUL4A / Fold change vs veh, CUL4A / RFU, CCNY / Fold change vs veh, CCNY / RFU, UFL1 / Fold change vs veh, UFL1 / RFU, COG3 / Fold change vs veh, COG3 / RFU, DIAPH2 / Fold change vs veh, DIAPH2 / RFU, SKA2 / Fold change vs veh, SKA2 / RFU, AFF3 / Fold change vs veh, AFF3 / RFU, LMF1 / Fold change vs veh, LMF1 / RFU, IPO11 / Fold change vs veh, IPO11 / RFU, DFFB / Fold change vs veh, DFFB / RFU, FOXP1 / Fold change vs veh, FOXP1 / RFU, CARD8 / Fold change vs veh, CARD8 / RFU, STRN3 / Fold change vs veh, STRN3 / RFU, ADK / Fold change vs veh, ADK / RFU, RASSF2 / Fold change vs veh, RASSF2 / RFU, WIPF1 / Fold change vs veh, WIPF1 / RFU, LARP1B / Fold change vs veh, LARP1B / RFU, RASA1 / Fold change vs veh, RASA1 / RFU, RB1 / Fold change vs veh, RB1 / RFU, PPFIA1 / Fold change vs veh, PPFIA1 / RFU, MAT2A / Fold change vs veh, MAT2A / RFU, CCT5 / Fold change vs veh, CCT5 / RFU, WDR92 / Fold change vs veh, WDR92 / RFU, CUX1 / Fold change vs veh, CUX1 / RFU, TTC7A / Fold change vs veh, TTC7A / RFU, TMEM135 / Fold change vs veh, TMEM135 / RFU, DEPTOR / Fold change vs veh, DEPTOR / RFU, CPM / Fold change vs veh, CPM / RFU, DNAJB6 / Fold change vs veh, DNAJB6 / RFU, CACNA2D3 / Fold change vs veh, CACNA2D3 / RFU, DTX4 / Fold change vs veh, DTX4 / RFU, TFCP2 / Fold change vs veh, TFCP2 / RFU, GMCL1 /// GMCL1P1 / Fold change vs veh, GMCL1 /// GMCL1P1 / RFU, AEBP2 / Fold change vs veh, AEBP2 / RFU, SNHG1 /// SNORD22 /// SNORD25 /// SNORD26 /// SNORD27 /// SNORD28 /// SNORD29 /// SNORD31 / Fold change vs veh, SNHG1 /// SNORD22 /// SNORD25 /// SNORD26 /// SNORD27 /// SNORD28 /// SNORD29 /// SNORD31 / Fold change (Aza/veh), C12orf56 (ProbeSet 11735607_a_at) / Fold change (ACY-1035/veh), C12orf56 (ProbeSet 11735607_a_at) / Fold change (Aza/veh), FGFR1OP (ProbeSet 11751329_s_at) / Fold change (ACY-1035/veh), FGFR1OP (ProbeSet 11751329_s_at) / Fold change (Aza/veh), VPS36 (ProbeSet 11739960_a_at) / Fold change (ACY-1035/veh), VPS36 (ProbeSet 11739960_a_at) / RFU SYPL1 (11715823_x_at) / Fold change /veh SYPL1 (11715823_x_at) / RFU IGFBP7 (11715501_s_at) / Fold change /veh IGFBP7 (11715501_s_at) / RFU REEP3 (11722064_at) / Fold change /veh REEP3 (11722064_at) / RFU IGLL1 (11728026_x_at) / Fold change /veh IGLL1 (11728026_x_at): dose or concentration left out as unconfirmed
Settings: MV-4-11 cells, 48 hours

Nc1ccc(-c2cccs2)cc1NC(=O)c1ccc2c(c1)cc(C1CC1)n2CCN1CCOCC1 [ACY-1035]
Fold change /veh RGS16 (11720944_at): 0.97
